Reference: PubChem BioAssay AID248 (DTP/NCI, 2004)
Values joined by “and” are separate entries in the source; they are usually repeats but may differ in a detail not shown here. Identical values can stand only once. Toxic doses and inconclusive results are not listed.

Tested on: L1210 leukemia ip in BDF1 mice, survival T/C
Experiment: NCI In Vivo Anticancer Drug Screen. Data for tumor model L1210 Leukemia (intraperitoneal) in B6D2F1 (BDF1) mice
Details: higher = longer survival
In short: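 Value reflects the ratio of survival in compound-treated mice to survival in vehicle-treated controls, with both groups carrying the same transplanted tumor.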

[1] = endpoint: mean survival time, dose: 100.0 mg/kg/injection, schedule: Q01DX001 (ip), vehicle: saline
[2] = endpoint: mean survival time, dose: 200.0 mg/kg/injection, schedule: Q01DX001 (ip), vehicle: saline
[3] = endpoint: mean survival time, dose: 400.0 mg/kg/injection, schedule: Q01DX001 (ip), vehicle: saline
[4] = endpoint: mean survival time, dose: 100.0 mg/kg/injection, schedule: Q01DX009 (ip), vehicle: Klucel (hydroxypropylcellulose) (HPC)
[5] = endpoint: mean survival time, dose: 200.0 mg/kg/injection, schedule: Q01DX009 (ip), vehicle: Klucel (hydroxypropylcellulose) (HPC)
[6] = endpoint: mean survival time, dose: 50.0 mg/kg/injection, schedule: Q01DX009 (ip), vehicle: saline
[7] = endpoint: mean survival time, dose: 100.0 mg/kg/injection, schedule: Q01DX009 (ip), vehicle: saline
[8] = endpoint: mean survival time, dose: 100.0 mg/kg/injection, schedule: Q04DX003 (ip), vehicle: saline
[9] = endpoint: mean survival time, dose: 200.0 mg/kg/injection, schedule: Q01DX009 (ip), vehicle: saline
[10] = endpoint: mean survival time, dose: 200.0 mg/kg/injection, schedule: Q04DX003 (ip), vehicle: saline
[11] = endpoint: mean survival time, dose: 100.0 mg/kg/injection, schedule: Q04DX002 (ip), vehicle: saline with Tween-80
[12] = endpoint: mean survival time, dose: 200.0 mg/kg/injection, schedule: Q04DX002 (ip), vehicle: saline with Tween-80
[13] = endpoint: mean survival time, dose: 400.0 mg/kg/injection, schedule: Q04DX002 (ip), vehicle: saline with Tween-80
[14] = endpoint: mean survival time, dose: 100.0 mg/kg/injection, schedule: Q04DX003 (ip), vehicle: saline with Tween-80
[15] = endpoint: mean survival time, dose: 200.0 mg/kg/injection, schedule: Q04DX003 (ip), vehicle: saline with Tween-80
[16] = endpoint: mean survival time, dose: 400.0 mg/kg/injection, schedule: Q04DX003 (ip), vehicle: saline with Tween-80
[17] = endpoint: mean survival time, dose: 400.0 mg/kg/injection, schedule: Q01DX009 (ip), vehicle: saline
[18] = endpoint: mean survival time, dose: 20.0 mg/kg/injection, schedule: Q04DX003 (ip), vehicle: Klucel (hydroxypropylcellulose) (HPC)

CCCCCNC(=O)CCCC
T/C (endpoint: mean survival time, dose: 100.0 mg/kg/injection, schedule: Q01DX001 (ip), vehicle: carboxymethylcellulose (CMC)): 103 % of control | T/C (endpoint: mean survival time, dose: 100.0 mg/kg/injection, schedule: Q01DX009 (ip), vehicle: carboxymethylcellulose (CMC)): 97 % of control and 108 % of control | T/C (endpoint: mean survival time, dose: 100.0 mg/kg/injection, schedule: Q04DX002 (ip), vehicle: carboxymethylcellulose (CMC)): 97 % of control | T/C (endpoint: mean survival time, dose: 100.0 mg/kg/injection, schedule: Q04DX003 (ip), vehicle: carboxymethylcellulose (CMC)): 101 % of control | T/C (endpoint: mean survival time, dose: 200.0 mg/kg/injection, schedule: Q01DX001 (ip), vehicle: carboxymethylcellulose (CMC)): 104 % of control | T/C (endpoint: mean survival time, dose: 200.0 mg/kg/injection, schedule: Q01DX009 (ip), vehicle: carboxymethylcellulose (CMC)): 101 % of control and 103 % of control | T/C (endpoint: mean survival time, dose: 200.0 mg/kg/injection, schedule: Q04DX002 (ip), vehicle: carboxymethylcellulose (CMC)): 97 % of control | T/C (endpoint: mean survival time, dose: 200.0 mg/kg/injection, schedule: Q04DX003 (ip), vehicle: carboxymethylcellulose (CMC)): 97 % of control | T/C (endpoint: mean survival time, dose: 400.0 mg/kg/injection, schedule: Q04DX002 (ip), vehicle: carboxymethylcellulose (CMC)): 97 % of control | T/C (endpoint: mean survival time, dose: 400.0 mg/kg/injection, schedule: Q04DX003 (ip), vehicle: carboxymethylcellulose (CMC)): 94 % of control

CNC(=O)NC1CCOCC1
T/C [1]: 100 % of control | T/C [2]: 96 % of control | T/C [3]: 96 % of control

C#CCOC(=O)Nc1ccccc1
T/C (endpoint: mean survival time, dose: 50.0 mg/kg/injection, schedule: Q01DX009 (ip), vehicle: Klucel (hydroxypropylcellulose) (HPC)): 100 % of control | T/C [4]: 100 % of control | T/C [5]: 107 % of control

CN(C)Cc1ccc([N+](=O)[O-])cc1
T/C (endpoint: mean survival time, dose: 25.0 mg/kg/injection, schedule: Q01DX009 (ip), vehicle: saline): 93 % of control | T/C [6]: 98 % of control | T/C (endpoint: mean survival time, dose: 75.0 mg/kg/injection, schedule: Q01DX001 (ip), vehicle: other): 98 % of control | T/C [7]: 101 % of control | T/C [8]: 95 % of control | T/C [9]: 96 % of control | T/C [10]: 87 % of control

Nc1ccc2nc3c(N)ccc(N)c3nc2c1
T/C [11]: 97 % of control | T/C [12]: 105 % of control | T/C [13]: 105 % of control

NC(CS(=O)c1ccc([N+](=O)[O-])cc1Cl)C(=O)O (stereo not given)
T/C [14]: 103 % of control | T/C [15]: 95 % of control | T/C [16]: 101 % of control

O=[N+]([O-])c1cc[n+]([O-])c2sccc12
T/C [14]: 100 % of control | T/C [15]: 109 % of control | T/C [16]: 108 % of control

c1ccc(CNNC2=NCCN2)cc1
T/C (endpoint: mean survival time, dose: 15.0 mg/kg/injection, schedule: Q01DX009 (ip), vehicle: saline): 103 % of control | T/C (endpoint: mean survival time, dose: 31.0 mg/kg/injection, schedule: Q01DX009 (ip), vehicle: saline): 102 % of control | T/C (endpoint: mean survival time, dose: 50.0 mg/kg/injection, schedule: Q01DX001 (ip), vehicle: saline): 103 % of control | T/C (endpoint: mean survival time, dose: 62.5 mg/kg/injection, schedule: Q01DX009 (ip), vehicle: saline): 92 % of control | T/C [1]: 114 % of control

CCCN(C(=O)N([Si](C)(C)C)S(=O)(=O)c1ccc(Cl)cc1)[Si](C)(C)C
T/C [6]: 103 % of control | T/C [7]: 96 % of control

CSc1ncc(CO)c(NC(C)(C)C)n1
T/C [8]: 96 % of control | T/C [10]: 100 % of control | T/C (endpoint: mean survival time, dose: 400.0 mg/kg/injection, schedule: Q04DX003 (ip), vehicle: saline): 100 % of control

CC1CNC(=S)N1 (stereo not given)
T/C (endpoint: mean survival time, dose: 100.0 mg/kg/injection, schedule: Q04DX002 (ip), vehicle: Klucel (hydroxypropylcellulose) (HPC)): 106 % of control | T/C (endpoint: mean survival time, dose: 200.0 mg/kg/injection, schedule: Q04DX002 (ip), vehicle: Klucel (hydroxypropylcellulose) (HPC)): 103 % of control | T/C (endpoint: mean survival time, dose: 400.0 mg/kg/injection, schedule: Q04DX002 (ip), vehicle: Klucel (hydroxypropylcellulose) (HPC)): 106 % of control

Cc1ccc(S(=O)(=O)NCCCc2c(C)nc(N)n(Cc3cccc([N+](=O)[O-])c3)c2=O)cc1
T/C (endpoint: mean survival time, dose: 100.0 mg/kg/injection, schedule: Q01DX001 (ip), vehicle: Klucel (hydroxypropylcellulose) (HPC)): 103 % of control | T/C (endpoint: mean survival time, dose: 200.0 mg/kg/injection, schedule: Q01DX001 (ip), vehicle: Klucel (hydroxypropylcellulose) (HPC)): 91 % of control | T/C (endpoint: mean survival time, dose: 400.0 mg/kg/injection, schedule: Q01DX001 (ip), vehicle: Klucel (hydroxypropylcellulose) (HPC)): 103 % of control

O=[N+]([O-])C1CC(Cl)CCC1SSC1CCC(Cl)CC1[N+](=O)[O-] (stereo not given)
T/C [11]: 95 % of control | T/C [12]: 98 % of control | T/C [13]: 92 % of control

CCCCCCCC/C=C\CCCCCCCC(=O)OCC
T/C (endpoint: mean survival time, dose: 100.0 mg/kg/injection, schedule: Q01DX001 (ip), vehicle: saline with Tween-80): 98 % of control | T/C (endpoint: mean survival time, dose: 200.0 mg/kg/injection, schedule: Q01DX001 (ip), vehicle: saline with Tween-80): 107 % of control | T/C (endpoint: mean survival time, dose: 400.0 mg/kg/injection, schedule: Q01DX001 (ip), vehicle: saline with Tween-80): 95 % of control

COc1cc(N=Nc2cccc([N+](=O)[O-])c2)ccc1N(CCCl)CCCl
T/C (endpoint: median survival time, dose: 100.0 mg/kg/injection, schedule: Q01DX009 (ip), vehicle: Klucel (hydroxypropylcellulose) (HPC)): 98 % of control | T/C (endpoint: median survival time, dose: 200.0 mg/kg/injection, schedule: Q01DX009 (ip), vehicle: Klucel (hydroxypropylcellulose) (HPC)): 100 % of control | T/C (endpoint: median survival time, dose: 400.0 mg/kg/injection, schedule: Q01DX009 (ip), vehicle: Klucel (hydroxypropylcellulose) (HPC)): 104 % of control

CCCCCCCCNC(=O)C1OC(n2cnc3c(N)ncnc32)C(O)C1O (stereo not given)
T/C (endpoint: mean survival time, dose: 100.0 mg/kg/injection, schedule: Q01DX005 (ip), vehicle: saline with Tween-80): 86 % of control | T/C [7]: 104 % of control | T/C (endpoint: mean survival time, dose: 200.0 mg/kg/injection, schedule: Q01DX005 (ip), vehicle: saline with Tween-80): 105 % of control | T/C [9]: 91 % of control | T/C [17]: 110 % of control

COc1c(C)ccc([N+](=O)[O-])c1OC
T/C [14]: 94 % of control | T/C [15]: 97 % of control | T/C [16]: 97 % of control

CSc1ccc(NC(=S)NCCc2ccccc2)cc1
T/C [4]: 114 % of control | T/C [5]: 97 % of control | T/C (endpoint: mean survival time, dose: 400.0 mg/kg/injection, schedule: Q01DX009 (ip), vehicle: Klucel (hydroxypropylcellulose) (HPC)): 102 % of control

COc1c(Cl)cc2c(c1OC)N(C)C1N3C(=O)C4(C)SSC3(C(=O)N4C)C(O)C21O (stereo not given)
T/C (endpoint: mean survival time, dose: 0.12 mg/kg/injection, schedule: Q01DX009 (ip), vehicle: Klucel (hydroxypropylcellulose) (HPC)): 106 % of control | T/C (endpoint: mean survival time, dose: 0.25 mg/kg/injection, schedule: Q01DX009 (ip), vehicle: Klucel (hydroxypropylcellulose) (HPC)): 101 % of control | T/C (endpoint: mean survival time, dose: 0.5 mg/kg/injection, schedule: Q01DX009 (ip), vehicle: Klucel (hydroxypropylcellulose) (HPC)): 110 % of control | T/C (endpoint: mean survival time, dose: 1.0 mg/kg/injection, schedule: Q01DX009 (ip), vehicle: Klucel (hydroxypropylcellulose) (HPC)): 108 % of control

O=CNC(Cc1ccccc1)Cc1ccccc1
T/C (endpoint: mean survival time, dose: 5.0 mg/kg/injection, schedule: Q01DX009 (ip), vehicle: Klucel (hydroxypropylcellulose) (HPC)): 98 % of control | T/C (endpoint: mean survival time, dose: 5.0 mg/kg/injection, schedule: Q04DX003 (ip), vehicle: Klucel (hydroxypropylcellulose) (HPC)): 103 % of control | T/C (endpoint: mean survival time, dose: 10.0 mg/kg/injection, schedule: Q01DX009 (ip), vehicle: Klucel (hydroxypropylcellulose) (HPC)): 102 % of control | T/C (endpoint: mean survival time, dose: 10.0 mg/kg/injection, schedule: Q04DX003 (ip), vehicle: Klucel (hydroxypropylcellulose) (HPC)): 103 % of control | T/C (endpoint: mean survival time, dose: 20.0 mg/kg/injection, schedule: Q01DX009 (ip), vehicle: Klucel (hydroxypropylcellulose) (HPC)): 102 % of control | T/C [18]: 102 % of control and 107 % of control

O=C(Nc1cc([N+](=O)[O-])ccc1O)c1ccccc1Cl
T/C [7]: 101 % of control | T/C [9]: 97 % of control | T/C [17]: 98 % of control

CS(=O)(=O)OCCN(CCOS(C)(=O)=O)c1ccc(C=Nc2ccc(C(=O)O)cc2)cc1
T/C (endpoint: mean survival time, dose: 2.5 mg/kg/injection, schedule: Q04DX003 (ip), vehicle: Klucel (hydroxypropylcellulose) (HPC)): 114 % of control | T/C [18]: 170 % of control | T/C (endpoint: mean survival time, dose: 40.0 mg/kg/injection, schedule: Q04DX003 (ip), vehicle: Klucel (hydroxypropylcellulose) (HPC)): 112 % of control

Oc1ccccc1C=Nc1cccc2c(N=Cc3ccccc3O)cccc12
T/C (endpoint: mean survival time, dose: 50.0 mg/kg/injection, schedule: Q04DX003 (ip), vehicle: other): 89 % of control | T/C [1]: 86 % of control | T/C (endpoint: mean survival time, dose: 100.0 mg/kg/injection, schedule: Q04DX003 (ip), vehicle: other): 86 % of control | T/C [2]: 88 % of control | T/C (endpoint: mean survival time, dose: 200.0 mg/kg/injection, schedule: Q04DX003 (ip), vehicle: other): 86 % of control | T/C [3]: 86 % of control
